Laboratory results reported in patent US10214546B2, “Btk inhibitors” (MERCK SHARP & DOHME CORP., priority 2014, dated 2019).
Read-outs that look alike come from different tables or passages of the source.

Experiments:
[1] = target: BTK enzyme (recombinant full-length BTK, hBTK) (Homo sapiens (Human), UniProt Q06187); assay: BTK enzymatic activity LANCE TR-FRET assay; format: biochemical; conditions: 50 pM hBTK, 25 μM ATP, 2 μM biotin-A5-peptide; compound range 1 μM to 0.017 nM; read-out: BTK binding IC50
[2] = system: adenosine uptake into HeLa cells; assay: [3H]Adenosine uptake assay in HeLa cells; format: cell-based; conditions: [3H]adenosine accumulation in HeLa cells, compound range 10 μM to 0.032 nM, read-out: ADU inhibition IC50
Outline: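 IC50 came from a 4-parameter fit of counts per second over a ten-point, 1:3 titration (final 10 µM down to […]). Compound was applied 30 min at ambient temperature in HBSS/5% FBS before a 500 nM [3H]adenosine solution was added; uptake ran 60 min, read by Cytostar-T proximity scintillation.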

Chain of BTK enzyme (recombinant full-length BTK, hBTK) (Q06187 whole entry): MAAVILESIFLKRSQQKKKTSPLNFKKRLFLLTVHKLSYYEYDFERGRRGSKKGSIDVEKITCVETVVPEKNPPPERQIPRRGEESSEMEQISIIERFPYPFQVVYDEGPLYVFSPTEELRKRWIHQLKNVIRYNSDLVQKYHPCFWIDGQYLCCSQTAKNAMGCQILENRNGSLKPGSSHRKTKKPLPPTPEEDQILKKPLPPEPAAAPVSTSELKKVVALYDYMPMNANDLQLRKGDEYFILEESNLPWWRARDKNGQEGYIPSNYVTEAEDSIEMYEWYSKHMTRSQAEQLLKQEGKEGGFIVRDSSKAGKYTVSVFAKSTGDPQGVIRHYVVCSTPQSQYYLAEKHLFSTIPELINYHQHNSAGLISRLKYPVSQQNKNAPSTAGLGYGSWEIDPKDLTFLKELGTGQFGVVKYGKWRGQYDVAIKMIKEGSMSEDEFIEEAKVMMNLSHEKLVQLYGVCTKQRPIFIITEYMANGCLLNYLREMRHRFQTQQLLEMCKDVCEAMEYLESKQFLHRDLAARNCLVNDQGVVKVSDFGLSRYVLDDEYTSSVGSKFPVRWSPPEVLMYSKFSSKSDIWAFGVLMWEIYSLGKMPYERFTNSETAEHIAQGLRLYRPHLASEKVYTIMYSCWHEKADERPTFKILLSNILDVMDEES

## C[C@](O)(c1cccc(C(F)(F)F)c1)c1ccc(-c2nc([C@@H]3CC[C@H]4CCC(=O)N4C3)n3ccnc(N)c23)c(F)c1 [Example 101, (6R,8aS)-6-[8-amino-1-(2-fluoro-4-{(1S)-1-hydroxy-1-[3-(trifluoromethyl)phenyl]ethyl}phenyl)imidazo [1,5-a]pyrazin-3-yl]hexahydroindolizin-3(2H)-one]
[1]
  IC50: 774 nM
[2]; Homo sapiens, HeLa
  IC50: 371 nM

## C[C@@](O)(c1cccc(C(F)(F)F)c1)c1ccc(-c2nc([C@@H]3CC[C@H]4CCC(=O)N4C3)n3ccnc(N)c23)c(F)c1 [Example 102, (6R,8aS)-6-[8-amino-1-(2-fluoro-4-{(1R)-1-hydroxy-1-[3-(trifluoromethyl)phenyl]ethyl}phenyl)imidazo [1,5-a]pyrazin-3-yl]hexahydroindolizin-3(2H)-one]
[1]
  IC50: 1.6 nM
[2]; Homo sapiens, HeLa
  IC50: 1680 nM

## Cc1cc([C@@](C)(O)c2cccc(C(F)(F)F)c2)ccc1-c1nc([C@@H]2CC[C@H]3CCC(=O)N3C2)n2ccnc(N)c12 [Example 103, (6R,8aS)-6-[8-amino-1-(4-{(1R)-1-hydroxy-1-[3-(trifluoromethyl)phenyl]-ethyl}-2-methylphenyl)imidazo [1,5-a]pyrazin-3-yl]hexahydroindolizin-3(2H)-one]
[1]
  IC50: 1000 nM
[2]; Homo sapiens, HeLa
  IC50: 487 nM

## Cc1cc([C@](C)(O)c2cccc(C(F)(F)F)c2)ccc1-c1nc([C@@H]2CC[C@H]3CCC(=O)N3C2)n2ccnc(N)c12 [Example 104, (6R,8aS)-6-[8-amino-1-(4-{(1S)-1-hydroxy-1-[3-(trifluoromethyl)phenyl]ethyl}-2-methylphenyl)imidazo [1,5-a]pyrazin-3-yl]hexahydroindolizin-3(2H)-one]
[1]
  IC50: 10.7 nM
[2]; Homo sapiens, HeLa
  IC50: 1700 nM

## CC(O)(c1cccc(C(F)(F)F)c1)c1ccc(-c2nc([C@@H]3CC[C@H]4CCC(=O)N4C3)n3ccnc(N)c23)c(C(F)(F)F)c1 (stereo partly drawn) [Example 105, (6R,8aS)-6-{8-amino-1-[4-{1-hydroxy-1-[3-(trifluoromethyl)phenyl]ethyl}-2-(trifluoromethyl)phenyl]imidazo[1,5-a]pyrazin-3-yl}hexahydroindolizin-3(2H)-one]
[1]
  IC50: 1000 nM
[2]; Homo sapiens, HeLa
  IC50: 861 nM

## Nc1nccn2c([C@@H]3CC[C@H]4CCC(=O)N4C3)nc(-c3ccc([C@@](O)(CO)c4cccc(C(F)(F)F)c4)cc3)c12 [Example 106, (6R,8aS)-6-[8-amino-1-(4-{(1S)-1,2-dihydroxy-1-[3-(trifluoromethyl)phenyl]ethyl}phenyl)imidazo [1,5-a]pyrazin-3-yl]hexahydroindolizin-3(2H)-one]
[1]
  IC50: 153 nM
[2]; Homo sapiens, HeLa
  IC50: 6970 nM

## Nc1nccn2c([C@@H]3CC[C@H]4CCC(=O)N4C3)nc(-c3ccc([C@](O)(CO)c4cccc(C(F)(F)F)c4)cc3)c12 [Example 107, (6R,8aS)-6-[8-amino-1-(4-{(1R)-1,2-dihydroxy-1-[3-(trifluoromethyl)phenyl]ethyl}phenyl)imidazo [1,5-a]pyrazin-3-yl]hexahydroindolizin-3(2H)-one]
[1]
  IC50: 939 nM
[2]; Homo sapiens, HeLa
  IC50: 530 nM

## Nc1nccn2c([C@@H]3CC[C@H]4CCC(=O)N4C3)nc(-c3ccc(C(O)(c4cccc(C(F)(F)F)c4)C(F)F)cc3)c12 (stereo partly drawn) [Example 108, (6R,8aS)-6-[8-amino-1-(4-{2,2-difluoro-1-hydroxy-1-[3-(trifluoromethyl)phenyl]ethyl}phenyl)imidazo [1,5-a]pyrazin-3-yl]hexahydroindolizin-3(2H)-one]
[1]
  IC50: 678 nM
[2]
  IC50: 467 nM

## CC(C)(c1cccc([C@@](C)(O)c2ccc(-c3nc([C@@H]4CC[C@H]5CCC(=O)N5C4)n4ccnc(N)c34)cc2)c1)C(F)(F)F [Example 109, (6R,8aS)-6-[8-amino-1-(4-{(1S)-1-hydroxy-1-[3-(2,2,2-trifluoro-1,1-dimethylethyl)phenyl]ethyl}phenyl)imidazo[1,5-a]pyrazin-3-yl]hexahydroindolizin-3(2H)-one]
[1]
  IC50: 44.9 nM
[2]; Homo sapiens, HeLa
  IC50: 892 nM

## CC(C)(c1cccc([C@](C)(O)c2ccc(-c3nc([C@@H]4CC[C@H]5CCC(=O)N5C4)n4ccnc(N)c34)cc2)c1)C(F)(F)F [Example 110, (6R,8aS)-6-[8-amino-1-(4-{(1R)-1-hydroxy-1-[3-(2,2,2-trifluoro-1,1-dimethylethyl)phenyl]ethyl}phenyl)imidazo[1,5-a]pyrazin-3-yl]hexahydroindolizin-3(2H)-one]
[1]
  IC50: 0.95 nM
[2]; Homo sapiens, HeLa
  IC50: 1700 nM

## C[C@](O)(c1ccc(-c2nc([C@@H]3CC[C@H]4CCC(=O)N4C3)n3ccnc(N)c23)cc1)c1ccc(C(F)(F)F)s1 [Example 111, (6R,8aS)-6-[8-amino-1-(4-{(1S)-1-hydroxy-1-[5-(trifluoromethyl)thiophen-2-yl]ethyl}phenyl)imidazo [1,5-a]pyrazin-3-yl]hexahydroindolizin-3(2H)-one]
[1]
  IC50: 1000 nM
[2]
  IC50: 722 nM

## Nc1nccn2c([C@@H]3CC[C@H]4CCC(=O)N4C3)nc(-c3ccc(C(O)(c4cccc(C(F)(F)F)c4)C(F)F)cc3)c12 (stereo partly drawn) [Example 112, (6R,8aS)-6-[8-amino-1-(4-{2,2-difluoro-1-hydroxy-1-[3-(trifluoromethyl)phenyl]ethyl}phenyl)imidazo [1,5-a]pyrazin-3-yl]hexahydroindolizin-3(2H)-one]
[1]
  IC50: 5.6 nM
[2]
  IC50: 1870 nM

## C[C@](O)(c1ccc(-c2nc([C@@H]3CC[C@H]4CCC(=O)N4C3)n3ccnc(N)c23)cc1)c1ccc(C(F)(F)F)s1 [Example 113, (6R,8aS)-6-[8-amino-1-(4-{(1S)-1-hydroxy-1-[5-(trifluoromethyl)thiophen-2-yl]ethyl}phenyl)imidazo [1,5-a]pyrazin-3-yl]hexahydroindolizin-3(2H)-one]
[1]
  IC50: 30.9 nM
[2]
  IC50: 2140 nM

## CN1CC[C@@H]2CC[C@@H](c3nc(-c4ccc([C@@](C)(O)c5cccc(C(F)(F)F)c5)cc4)c4c(N)nccn34)CN2C1=O [Example 114, (4aS,7R)-7-[8-amino-1-(4-{(1R)-1-hydroxy-1-[3-(trifluoromethyl)phenyl]ethyl}phenyl)imidazo [1,5-a]pyrazin-3-yl]-2-methyloctahydro-1H-pyrido[1,2-c]pyrimidin-1-one]
[1]
  IC50: 0.22 nM
[2]; Homo sapiens, HeLa
  IC50: 888 nM

## CN1CC[C@@H]2CC[C@@H](c3nc(-c4ccc([C@](C)(O)c5cccc(C(F)(F)F)c5)cc4)c4c(N)nccn34)CN2C1=O [Example 115, (4aS,7R)-7-[8-amino-1-(4-{(1S)-1-hydroxy-1-[3-(trifluoromethyl)phenyl]ethyl}phenyl)imidazo [1,5-a]pyrazin-3-yl]-2-methyloctahydro-1H-pyrido[1,2-c]pyrimidin-1-one]
[1]
  IC50: 51.9 nM
[2]; Homo sapiens, HeLa
  IC50: 172 nM

## C[C@](O)(c1ccc(-c2nc([C@@H]3CC[C@H]4CCC(=O)N4C3)n3c(Cl)cnc(N)c23)cc1)c1cccc(C2CC2)c1 [Example 116, (6R,8aS)-6-(8-amino-5-chloro-1-{4-[(1S)-1-(3-cyclopropylphenyl)-1-hydroxyethyl]phenyl}imidazo[1,5-a]pyrazin-3-yl)hexahydroindolizin-3(2H)-one]
[1]
  IC50: 0.87 nM
[2]; Homo sapiens, HeLa
  IC50: 458 nM

## C[C@@](O)(c1ccc(-c2nc([C@@H]3CC[C@H]4CCC(=O)N4C3)n3c(Cl)cnc(N)c23)cc1)c1cccc(C2CC2)c1 [Example 117, (6R,8aS)-6-(8-amino-5-chloro-1-{4-[(1R)-1-(3-cyclopropylphenyl)-1-hydroxyethyl]phenyl}imidazo[1,5-a]pyrazin-3-yl)hexahydroindolizin-3(2H)-one]
[1]
  IC50: 0.12 nM
[2]; Homo sapiens, HeLa
  IC50: 956 nM
